Consider five molecules from ChEMBL document CHEMBL2390821, “Flaxseed (Linum usitatissimum L.) extract as well as (+)-secoisolariciresinol diglucoside and its mammalian derivatives are potent inhibitors of α-amylase activity” (Bioorg Med Chem Lett, 2013).

The source made the active and inactive calls. No cut-off for these calls is given here.

Assay [1] in a line: Inhibition of pig pancreas soluble alpha-amylase using 4-nitrophenyl-alpha-D-maltopentaoside as substrate after 30 mins by spectrophotometry. The arrangement: species or system Sus scrofa.
Another assay is filed under the species Rattus norvegicus. Nature of the assay: Inhibition of immobilized rat intestinal alpha-glucosidase using 4-nitrophenyl-alpha-D-glucopyranoside as substrate assessed as enzyme activity after 30 mins by spectrophotometry relative to control. The arrangement: concentration or dose not given beside the values.
The species named for a further assay is Sus scrofa. Nature of the assay: Mixed-type inhibition of pig pancreas soluble alpha-amylase using 4-nitrophenyl-alpha-D-maltopentaoside as substrate assessed as formation of inactive enzyme-inhibitor complex after 30 mins by spectrophotometry.
Assay [2] in a line: […] inhibition of pig pancreas soluble alpha-amylase using 4-nitrophenyl-alpha-D-maltopentaoside as substrate assessed as enzyme-substrate-inhibitor dissociation constant after 30 mins by double reciprocal plot method. On the set-up: species or system Sus scrofa.
A short description of assay [3]: […] inhibition of pig pancreas soluble alpha-amylase using 4-nitrophenyl-alpha-D-maltopentaoside as substrate assessed as enzyme-inhibitor dissociation constant after 30 mins by double reciprocal plot method. On the set-up: species or system Sus scrofa.

In assay [1], `COc1cc(C[C@@H](CO)[C@H](CO)Cc2ccc(O)c(OC)c2)ccc1O` [(+)-SECOISOLARICIRESINOL] came in with an IC50 of 9.5 µM. In addition, the Activity in the assay listed under Rattus norvegicus is 72.4%.
Consider `C[C@H]1O[C@H](O[C@H]2[C@H](O)[C@@H](O)[C@@H](O[C@H]3[C@H](O)[C@@H](O)C(O)O[C@@H]3CO)O[C@@H]2CO)[C@H](O)[C@@H](O)[C@@H]1N[C@H]1C=C(CO)[C@@H](O)[C@H](O)[C@H]1O` (some centres not stated), for which the Activity in the assay filed under Rattus norvegicus was 34.4%.
Turning to `COc1cc(C[C@H](CO[C@@H]2O[C@H](CO)[C@@H](O)[C@H](O)[C@H]2O)[C@@H](CO[C@@H]2O[C@H](CO)[C@@H](O)[C@H](O)[C@H]2O)Cc2ccc(O)c(OC)c2)ccc1O` [(+)-SECOISOLARICIRESINOLDIGLUCOSIDE], the IC50 in assay [1] was found to be 15.7 µM. Moreover, the Activity in the assay listed under Rattus norvegicus was determined as 74.3%.
Taken in the same sequence, the figures for `O=C1OC[C@@H](Cc2cccc(O)c2)[C@@H]1Cc1cccc(O)c1` [(+)-ENTEROLACTONE] were 10.9 µM and 73.9%.
As to `OC[C@@H](Cc1cccc(O)c1)[C@@H](CO)Cc1cccc(O)c1` [(+)-ENTERODIOL], the inhibition entry in the assay filed under Sus scrofa was “Active”. Further, the values for the Ki in assay [2] and in assay [3] were 40.3 µM and 94.1 µM, respectively. Also, 8.6 µM corresponded to half-maximal inhibition in assay [1] (IC50). For the same molecule, the Activity in the assay filed under Rattus norvegicus was determined as 69.9%.

Broadly, the IC50 is the concentration that inhibits the measured activity by half. As a reminder, the Ki is a measure of affinity in units of concentration, obtained from inhibition or displacement.
